Tests used:
[1] = test system: human iPS cell-derived myocardial cells; experiment: Heart rate of myocardial cells by MEA, serum-free culture medium with isoproterenol and carbachol added; assay type: cell-based; settings: serum-free culture medium with 1 μmol/L isoproterenol and 3 μmol/L carbachol; cumulative drug concentrations, 20 minutes after addition; vs medium control
Method: (§1) Example 4: Method and results of evaluating increase in heart rate by muscarinic receptor inhibitor (atropine) using serum-free culture medium to which adrenergic receptor agonist (isoproterenol) and muscarinic receptor agonist (carbachol) are added Human iPS cell-derived myocardial cells (iCell myocardial cells 2.0, manufactured by FUJIFILM Cellular Dynamics, Inc.) in a frozen state were thawed, suspended in a thawing culture medium (iCell myocardial cell thawing culture medium, manufactured by FUJIFILM Cellular Dynamics, Inc.), and then seeded at a cell density of 50,000 cells per well on a MEA plate (Cyto View MEA 48, manufactured by Axion BioSystems, Inc.). The seeding density of myocardial cells in the vicinity of the electrode was 2,725 cells/mm^2. After the plate was allowed to stand in a CO2 incubator for several hours, a maintenance culture medium (iCell myocardial cell maintenance culture medium, manufactured by FUJIFILM Cellular Dynamics, Inc.) containing serum was added, and the myocardial cells were cultured in the CO2 incubator for about one week. The culture medium was exchanged with a serum-free culture medium (a myocardial cell serum-free assay culture medium, manufactured by FUJIFILM Cellular Dynamics, Inc.) on the day before the measurement.
(§2) On the day of measurement, the MEA plate on which human iPS cell-derived myocardial cells were cultured was placed in an MEA system (Maestro Pro, manufactured by Axion BioSystems, Inc.), 1 μmol/L of isoproterenol (manufactured by Tokyo Chemical Industry Co., Ltd.) and 3 μmol/L of carbachol (manufactured by Tokyo Chemical Industry Co., Ltd.) were added to the culture medium, and then the extracellular potential was measured after 20 minutes from the addition (medium control, atropine concentration: 0 μmol/L). Subsequently, 0.01 μmol/L of atropine (manufactured by Tokyo Chemical Industry Co., Ltd.) was added to the MEA plate, and then the extracellular potential was measured after 20 minutes from the addition. Similarly, atropine was added to give concentrations of 0.1 μmol/L and 1 μmol/L, and then the extracellular potential was measured at each concentration.
From the measurement results of the extracellular potential, the interval between sharp peaks indicating depolarization of human iPS cell-derived myocardial cells was taken as the beating time (sec), and the heart rate (/min)=60/beating time (sec) was calculated. The addition of atropine was confirmed to result in an increase in heart rate of up to 51% (FIG. 7).
In the same manner as in Example 4, evaluation was carried out using an MEA plate on which human iPS cell-derived myocardial cells were cultured. Specifically, the same operations as in Example 4 were carried out except that atropine added in Example 4 was changed to tiotropium (manufactured by Tokyo Chemical Industry Co., Ltd.) and the concentration of tiotropium added was 1 pmol/L, 10 pmol/L, 100 pmol/L, and 1,000 pmol/L.
In the same manner as in Example 4, evaluation was carried out using an MEA plate on which human iPS cell-derived myocardial cells were cultured. Specifically, the same operations as in Example 4 were carried out except that atropine added in Example 4 was changed to glycopyrronium (manufactured by Tokyo Chemical Industry Co., Ltd.) and the concentration of glycopyrronium added was 0.01 nmol/L, 0.1 nmol/L, 1 nmol/L, and 10 nmol/L.
In the same manner as in Example 4, evaluation was carried out using an MEA plate on which human iPS cell-derived myocardial cells were cultured. Specifically, the same operations as in Example 4 were carried out except that the atropine added in Example 4 was changed to propranolol (manufactured by FUJIFILM Wako Pure Chemical Corporation) and the concentration of propranolol added was 0.1 nmol/L, 1 nmol/L, 10 nmol/L, and 100 nmol/L.
In the same manner as in Example 4, evaluation was carried out using an MEA plate on which human iPS cell-derived myocardial cells were cultured. […]

[2] = test system: human iPS cell-derived myocardial cells; experiment: Heart rate of myocardial cells by MEA, serum-free culture medium with isoproterenol added; assay type: cell-based; settings: serum-free culture medium with 1 μmol/L isoproterenol; cumulative drug concentrations, 20 minutes after addition; vs medium control
Method: as §1, with “1:” for “4:”, “decrease” for “increase”, “agonist (carbachol)” for “inhibitor (atropine)”, “is” for “and muscarinic receptor agonist (carbachol) are”, “2,671” for “2,725”, “The culture medium was exchanged with a serum-free culture medium (a myocardial cell serum-free assay culture medium, manufactured by FUJIFILM Cellular Dynamics, Inc.) on the day before the measurement.” left out
as §2, with “Ltd.) was” for “Ltd.) and 3 μmol/L of carbachol (manufactured by Tokyo Chemical Industry Co., Ltd.) were”, “control, carbachol” for “control, atropine”, “of carbachol” for “of atropine”, “Similarly, carbachol” for “Similarly, atropine”, “0.1 μmol/L, 1 μmol/L,” for “0.1 μmol/L”, “and 10” for “and 1”
From the measurement results of the extracellular potential, the interval between sharp peaks indicating depolarization of human iPS cell-derived myocardial cells was taken as the beating time (sec), and the heart rate (/min)=60/ beating time (sec) was calculated. […]

SMILES	increase in heart rate [1]	decrease in heart rate [2]
CN1[C@@H]2CC[C@H]1C[C@@H](OC(=O)C(CO)c1ccccc1)C2 (some centres unmarked) [atropine]	up to 51%	–
C[N+](C)(C)CCOC(N)=O [carbachol]	–	up to 34%

From patent US20250354979A1, “DRUG EVALUATION METHOD, REAGENT, AND KIT” (FUJIFILM Corporation, priority 2023, published 2025)
